From patent publication US8455649B2, “Insecticidal substituted azinyl derivatives” (Dow AgroSciences, LLC, priority 2007, dated 2013)
Where two headings read alike, the source gives them in different places.

What was measured:
[1] = system: Beet Armyworm (Spodoptera exigua); experiment: Insecticidal diet-surface test for beet armyworm; type: in vivo; conditions: 120 h, read-out: LAPHEG AVG % Mortality (50 μg/cm^2)
Protocol: (§1) The compounds identified in Table 1 were tested against beet armyworm and corn earworm as follows:
(§2) Insecticidal Test for Corn Earworm (Helicoverpa zea) and Beet Armyworm (Spodoptera exigua).
(§3) To prepare test solution, the test compound was formulated at 2000 ppm solution as 4 mg/2 mL of 9 acetone:1 tap water. 50 μL of the 2000 ppm (equivalent to 50 μg/cm^2 dose on diet surface area) test solution was pipetted upon the surface of 1 mL of lepidopteran diet (Southland Multi-Species Lepidopteran Diet) contained in each of eight wells per insect species (one well=1 replication). A second-instar corn earworm and beet armyworm was placed upon the treated diet in each well once the solvent had air-dried. Trays containing the treated diet and larvae were covered and then held in a growth chamber at 25° C., 50-55% RH, and 16 hr light:8 hr dark for 5 days. Observation were conducted 5 days after treatment and infestation. The number of dead insects of 8 per species per treatment was then determined and the results are given in Table 2 as a percent control at a dose of […].

[2] = system: Corn Earworm (Helicoverpa zea); experiment: Insecticidal diet-surface test for corn earworm; type: in vivo; conditions: 120 h, read-out: HELIZE AVG % Mortality (50 μg/cm^2)
Protocol: as §1, §2, §3

[3] = second-instar larvae on treated diet, 50 μg/cm^2 on diet surface, 5 days after treatment, 8 insects per treatment

Compound	mortality at 50 µg/cm2 [1, 3] [%]	mortality at 50 µg/cm2 [2, 3] [%]	mortality at 50 µg/cm2 [1] [%]	mortality at 50 µg/cm2 [2] [%]
CN(C(=O)Nc1nc(OCC(F)(F)F)cc(OCC(F)(F)F)n1)c1ccc(Br)c(Cl)c1 [Compound 84]	100	100	–	–
N#Cc1ccc(NC(=O)Nc2nc(OCC(F)(F)F)cc(OCC(F)(F)F)n2)cc1 [Compound 4]	0	100	–	–
O=C(Nc1ccc(C(F)(F)F)cc1)Nc1nc(OCC(F)(F)F)cc(SCC(F)(F)F)n1 [Compound 6]	0	63	–	–
CN(C(=O)Nc1nc(OCC(F)(F)F)cc(OCC(F)(F)F)n1)c1ccc(Cl)cn1 [Compound 124]	100	100	–	–
CC(C)OCN(C(=O)Nc1nc(OCC(F)(F)F)cc(OCC(F)(F)F)n1)c1ccc(C(F)(F)F)cc1 [Compound 53]	100	100	–	–
O=C(Nc1nc(OCC(F)(F)F)cc(OCC(F)(F)F)n1)Nc1c(Cl)cc(Br)cc1Cl [Compound 180]	100	100	–	–
CSc1ccc(NC(=O)Nc2nc(OCC(F)(F)F)cc(OCC(F)(F)F)n2)cc1 [Compound 57]	0	100	–	–
O=C(Nc1nc(OCC(F)(F)F)cc(OCC(F)(F)F)n1)N(c1ccc(C(F)(F)F)cc1)C1CC1 [Compound 156]	100	100	–	–
CC(=O)OCN(C(=O)Nc1ccc(C(F)(F)F)cc1)c1nc(OCC(F)(F)F)cc(OCC(F)(F)F)n1 [Compound 13]	100	100	–	–
O=C(Nc1ccc(OC(F)(F)F)cc1)Nc1nc(OCC(F)(F)C(F)(F)F)cc(OCC(F)(F)C(F)(F)F)n1 [Compound 104]	0	100	–	–
CN(C(=O)Nc1cc(OCC(F)(F)F)nc(OCC(F)(F)F)n1)c1ccc(C(F)(F)F)nc1 [Compound 113]	100	0	–	–
CN(C(=O)Nc1cc(OCC(F)(F)F)nc(OCC(F)(F)F)n1)c1ccc(Cl)cc1 [Compound 112]	50	100	–	–
CN(C(=O)Nc1cc(OCC(F)(F)F)nc(OCC(F)(F)F)n1)c1ccc(Br)nc1 [Compound 109]	88	25	–	–
CN(C(=O)Nc1nc(OCC(F)(F)F)nc(OCC(F)(F)F)n1)c1ccc(Cl)cc1 [Compound 121, N′-[4,6-bis(2,2,2-trifluoroethoxy)-1,3,5-triazin-2-yl]-N-(4-chlorophenyl)-N-methylurea]	100	100	–	–
CN(C(=O)Nc1nc(OCC(F)(F)F)cc(OCC(F)(F)F)n1)c1ccc(Br)cn1 [Compound 123]	100	100	–	–
CN(C(=O)Nc1cc(OCC(F)(F)F)nc(OCC(F)(F)F)n1)c1ccc(Br)cc1 [Compound 108]	100	100	–	–
O=C1CN(c2ccc(OC(F)(F)F)cc2)C(=O)N1c1nc(OCC(F)(F)F)cc(OCC(F)(F)F)n1 [Compound 30]	88	100	–	–
CN(C(=O)Nc1nc(OCC(F)(F)F)cc(OCC(F)(F)F)n1)c1ccc(Br)cc1C(F)(F)F [Compound 155]	50	100	–	–
CN(C(=O)Nc1nc(OCC(F)(F)F)cc(OCC(F)(F)F)n1)c1ccc(C#N)c(Cl)c1 [Compound 92]	–	–	100	100
CON(C(=O)Nc1nc(OCC(F)(F)F)cc(OCC(F)(F)F)n1)c1ccc(Cl)cc1 [Compound 65, N′-[4,6-bis(2,2,2-trifluoroethoxy)pyrimidin-2-yl]-N-(4-chlorophenyl)-N-methoxyurea]	100	100	–	–
O=C(Nc1ccc(C(F)(F)F)cc1)Nc1nc(OCC(F)(F)C(F)(F)F)cc(OCC(F)(F)C(F)(F)F)n1 [Compound 174]	0	100	–	–
O=C(Nc1ccc(OCC(F)F)cc1)Nc1nc(OCC(F)(F)F)cc(OCC(F)(F)F)n1 [Compound 15]	75	50	–	–
CN(C(=O)Nc1nc(OCC(F)(F)F)cc(OCC(F)(F)F)n1)c1ccc(C(F)(F)F)c(Cl)c1 [Compound 153]	100	100	–	–
COC(=O)CN(C(=O)Nc1nc(OCC(F)(F)F)cc(OCC(F)(F)F)n1)c1ccc(OC(F)(F)F)cc1 [Compound 28]	100	100	–	–
FC(F)(F)COc1cc(OCC(F)(F)F)nc(NC(=S)Nc2ccc(Br)cc2)n1 [Compound 129]	100	100	–	–
